Assay results taken from patent US7074789B2, “Kinase inhibitors” (Amgen Inc., priority 1999, dated 2006).

Legend:
Assay type in all cases: biochemical
Lck = biological target: T1, Lck (Homo sapiens, UniProt P06239); test: Kinase inhibition assay (33P transfer), Lck; conditions: read-out: Lck-1
T1 construct: Kinases are expressed as either kinase domains or full length constructs; made in house
Procedure, shortened: (§1)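 Kinase domains or full-length kinases, GST- or His-tagged and expressed in E. coli or baculovirus/High Five cells, transferred 33PO4 from ATP onto plate-bound poly(Glu,Tyr) 4:1 or poly(Arg,Ser) 3:1. After incubation, plates were washed with 0.5% phosphoric acid and counted by liquid scintillation.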

Lyn = biological target: T2, Lyn (Homo sapiens, UniProt P07948); test: Kinase inhibition assay (33P transfer), Lyn; conditions: Table 6, Lyn-1 kinase inhibition class
T2 construct: Kinases are expressed as either kinase domains or full length constructs; made in house
Procedure, shortened: (§2)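 Read-out: scintillation counts of 33P moved from ATP onto synthetic peptide polymer coated on the well surface, after washing with 0.5% phosphoric acid. Enzymes were tagged (GST or polyHistidine) and came from bacterial or insect-cell expression. IC50 marks 50% loss of incorporated label.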

Src = biological target: T3, Src (Homo sapiens, UniProt P12931); test: Kinase inhibition assay (33P transfer), Src; conditions: Table 6, Src-1 kinase inhibition class
T3 construct: Kinases are expressed as either kinase domains or full length constructs; made in house
Procedure, shortened: as §2

Fyn = biological target: T4, Fyn (Homo sapiens, UniProt P06241); test: Kinase inhibition assay (33P transfer), Fyn; conditions: read-out: Fyn-1
T4 construct: Kinases are expressed as either kinase domains or full length constructs; made in house
Procedure, shortened: as §2

Zap-70 = biological target: T5, Zap-70 (Homo sapiens, UniProt P43403); test: Kinase inhibition assay (33P transfer), Zap-70; conditions: read-out: Zap-1
T5 construct: Kinases are expressed as either kinase domains or full length constructs; made in house
T5 sequence (P43403 1-619): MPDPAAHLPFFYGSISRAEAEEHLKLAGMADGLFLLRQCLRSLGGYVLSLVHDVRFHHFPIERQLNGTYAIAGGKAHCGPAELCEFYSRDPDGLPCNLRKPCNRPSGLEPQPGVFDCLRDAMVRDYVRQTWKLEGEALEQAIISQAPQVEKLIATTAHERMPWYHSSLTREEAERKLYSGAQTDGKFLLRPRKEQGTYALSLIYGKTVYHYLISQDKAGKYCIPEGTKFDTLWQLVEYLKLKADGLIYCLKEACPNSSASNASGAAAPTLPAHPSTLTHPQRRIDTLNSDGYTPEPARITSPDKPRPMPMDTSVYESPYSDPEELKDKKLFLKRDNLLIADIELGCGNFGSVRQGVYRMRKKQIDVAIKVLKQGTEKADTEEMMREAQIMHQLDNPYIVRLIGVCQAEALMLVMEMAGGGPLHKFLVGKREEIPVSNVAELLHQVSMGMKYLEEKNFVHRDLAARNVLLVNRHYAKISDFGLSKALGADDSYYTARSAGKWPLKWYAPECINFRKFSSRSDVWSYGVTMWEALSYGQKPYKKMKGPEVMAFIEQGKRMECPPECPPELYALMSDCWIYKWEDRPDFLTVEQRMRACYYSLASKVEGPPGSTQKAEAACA
Procedure, shortened: as §1

Itk = biological target: T6, Itk (Homo sapiens, UniProt Q08881); test: Kinase inhibition assay (33P transfer), Itk; conditions: read-out: Itk-1
T6 construct: Kinases are expressed as either kinase domains or full length constructs; made in house
T6 sequence (Q08881 1-620): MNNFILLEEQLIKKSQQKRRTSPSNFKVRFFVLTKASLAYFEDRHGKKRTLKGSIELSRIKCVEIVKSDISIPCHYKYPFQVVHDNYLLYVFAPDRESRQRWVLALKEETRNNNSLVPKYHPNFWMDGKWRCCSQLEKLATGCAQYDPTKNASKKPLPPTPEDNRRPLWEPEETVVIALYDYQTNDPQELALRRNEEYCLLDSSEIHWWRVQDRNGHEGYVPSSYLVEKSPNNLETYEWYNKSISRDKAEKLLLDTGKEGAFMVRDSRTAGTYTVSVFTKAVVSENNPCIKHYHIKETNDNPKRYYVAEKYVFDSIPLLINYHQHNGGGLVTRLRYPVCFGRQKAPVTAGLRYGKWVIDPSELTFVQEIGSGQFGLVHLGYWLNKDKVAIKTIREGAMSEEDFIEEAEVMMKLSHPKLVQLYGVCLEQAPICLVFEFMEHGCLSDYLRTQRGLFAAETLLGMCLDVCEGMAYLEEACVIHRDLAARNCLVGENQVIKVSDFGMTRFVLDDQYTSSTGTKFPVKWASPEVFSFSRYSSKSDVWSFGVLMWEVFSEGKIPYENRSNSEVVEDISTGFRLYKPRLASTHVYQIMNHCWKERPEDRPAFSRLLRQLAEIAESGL
Procedure, shortened: as §2

EGFR = biological target: T7, EGFR (Homo sapiens, UniProt P00533); test: Kinase inhibition assay (33P transfer), EGFR; conditions: Table 2, kinase inhibition class; read-out: EGFR-1
T7 construct: Kinases are expressed as either kinase domains or full length constructs; made in house
Procedure, shortened: as §2

ErbB2 = biological target: T8, ErbB2 (Homo sapiens, UniProt P04626); test: Kinase inhibition assay (33P transfer), ErbB2; conditions: read-out: ErbB2-2
T8 construct: Kinases are expressed as either kinase domains or full length constructs; made in house
Procedure, shortened: as §2

Kdr = biological target: T9, Kdr (Homo sapiens, UniProt P35968); test: Kinase inhibition assay (33P transfer), Kdr; conditions: read-out: KDR-1
T9 construct: Kinases are expressed as either kinase domains or full length constructs; made in house
Procedure, shortened: as §1

Flt-1 = biological target: T10, Flt-1 (Homo sapiens, UniProt P17948); test: Kinase inhibition assay (33P transfer), Flt-1
T10 construct: Kinases are expressed as either kinase domains or full length constructs; made in house
Procedure, shortened: as §2

Tek = biological target: T11, Tek (Homo sapiens, UniProt Q02763); test: Kinase inhibition assay (33P transfer), Tek; conditions: read-out: Tek-1
T11 construct: Kinases are expressed as either kinase domains or full length constructs; made in house
Procedure, shortened: as §2

c-Met = biological target: T12, c-Met (Homo sapiens, UniProt P08581); test: Kinase inhibition assay (33P transfer), c-Met; conditions: Table 2, kinase inhibition class; read-out: Met-1
T12 construct: Kinases are expressed as either kinase domains or full length constructs; made in house
Procedure, shortened: as §2

AKT = biological target: T13, AKT (Homo sapiens, UniProt Q9Y243); test: Kinase inhibition assay (33P transfer), AKT; conditions: Table 2, kinase inhibition class; read-out: AKT3-1
T13 construct: Kinases are expressed as either kinase domains or full length constructs; made in house
Procedure, shortened: as §1

IGFR-1 = biological target: T14, IGFR-1 (Homo sapiens, UniProt P08069); test: Kinase inhibition assay, IGFR-1 (Table 2); conditions: Table 2, kinase inhibition class
T14 construct: Kinases are expressed as either kinase domains or full length constructs; made in house

PDGFRB = biological target: T15, PDGFRB (Homo sapiens, UniProt P09619); test: Kinase inhibition assay (33P transfer), PDGFRB; conditions: read-out: PDGFRB-1
T15 construct: Kinases are expressed as either kinase domains or full length constructs; made in house

Hck-1 = biological target: T16, Hck-1 (Homo sapiens, UniProt P08631); test: Kinase inhibition assay (33P transfer), Hck; conditions: Table 6, Hck-1 kinase inhibition class
T16 construct: Kinases are expressed as either kinase domains or full length constructs; made in house

ErbB4 = biological target: T17, ErbB4 (Homo sapiens, UniProt Q15303); test: Kinase inhibition assay (33P transfer), ErbB4; conditions: read-out: ErbB4-1
T17 construct: Kinases are expressed as either kinase domains or full length constructs; made in house

Ret-1 = biological target: T18, Ret-1 (Homo sapiens, UniProt P07949); test: Kinase inhibition assay (33P transfer), Ret; conditions: Table 6, Ret-1 kinase inhibition class
T18 construct: Kinases are expressed as either kinase domains or full length constructs; made in house

FGFR1 = biological target: T19, FGFR1 (Homo sapiens, UniProt P11362); test: Kinase inhibition assay (33P transfer), FGFR1; conditions: read-out: FGFR1-1
T19 construct: Kinases are expressed as either kinase domains or full length constructs; made in house

T15 sequence (P09619 33-1106, species assumed): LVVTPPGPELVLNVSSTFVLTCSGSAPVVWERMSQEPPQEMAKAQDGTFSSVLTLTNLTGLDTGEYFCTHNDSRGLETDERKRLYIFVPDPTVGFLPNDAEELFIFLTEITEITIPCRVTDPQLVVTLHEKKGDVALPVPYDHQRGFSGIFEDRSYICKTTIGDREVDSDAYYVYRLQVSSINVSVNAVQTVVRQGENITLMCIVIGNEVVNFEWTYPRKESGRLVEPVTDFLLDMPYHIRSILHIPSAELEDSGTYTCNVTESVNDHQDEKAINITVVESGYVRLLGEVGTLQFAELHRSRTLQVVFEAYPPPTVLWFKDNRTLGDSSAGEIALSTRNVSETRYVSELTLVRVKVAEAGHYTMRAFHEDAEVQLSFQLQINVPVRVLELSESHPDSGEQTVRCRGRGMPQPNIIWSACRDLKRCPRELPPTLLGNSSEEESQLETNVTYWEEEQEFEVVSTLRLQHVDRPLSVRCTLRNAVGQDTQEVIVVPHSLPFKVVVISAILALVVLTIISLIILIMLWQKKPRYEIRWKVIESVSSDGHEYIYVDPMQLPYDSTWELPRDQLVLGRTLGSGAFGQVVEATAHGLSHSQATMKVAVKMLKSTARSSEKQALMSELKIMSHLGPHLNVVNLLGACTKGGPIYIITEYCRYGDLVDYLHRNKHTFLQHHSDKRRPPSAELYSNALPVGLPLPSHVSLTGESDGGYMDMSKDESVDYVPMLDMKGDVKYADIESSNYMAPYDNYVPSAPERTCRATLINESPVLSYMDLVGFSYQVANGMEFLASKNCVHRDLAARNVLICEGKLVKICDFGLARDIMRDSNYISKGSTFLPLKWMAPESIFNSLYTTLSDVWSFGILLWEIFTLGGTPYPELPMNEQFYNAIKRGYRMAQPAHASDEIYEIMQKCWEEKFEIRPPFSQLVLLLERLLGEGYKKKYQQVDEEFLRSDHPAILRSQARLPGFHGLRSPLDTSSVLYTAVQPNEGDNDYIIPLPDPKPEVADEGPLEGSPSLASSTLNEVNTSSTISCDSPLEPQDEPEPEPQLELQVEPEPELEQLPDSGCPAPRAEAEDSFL
T3 sequence (P12931 whole entry, species assumed, the tested form may be a part): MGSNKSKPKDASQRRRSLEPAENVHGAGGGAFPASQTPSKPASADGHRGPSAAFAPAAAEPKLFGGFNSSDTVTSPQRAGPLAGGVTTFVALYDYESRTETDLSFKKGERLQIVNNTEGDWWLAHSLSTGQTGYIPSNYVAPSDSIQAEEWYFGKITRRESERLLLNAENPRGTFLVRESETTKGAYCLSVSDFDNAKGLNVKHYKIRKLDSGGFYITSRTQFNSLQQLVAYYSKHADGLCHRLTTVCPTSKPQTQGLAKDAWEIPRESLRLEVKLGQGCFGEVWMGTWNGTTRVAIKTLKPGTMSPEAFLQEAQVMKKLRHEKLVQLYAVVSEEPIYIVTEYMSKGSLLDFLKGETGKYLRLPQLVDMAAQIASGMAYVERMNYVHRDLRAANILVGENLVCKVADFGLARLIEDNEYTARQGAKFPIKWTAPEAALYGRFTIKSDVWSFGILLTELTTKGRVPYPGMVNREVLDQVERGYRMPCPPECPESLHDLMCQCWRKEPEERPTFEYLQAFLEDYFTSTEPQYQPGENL
T4 sequence (P06241 whole entry, species assumed, the tested form may be a part): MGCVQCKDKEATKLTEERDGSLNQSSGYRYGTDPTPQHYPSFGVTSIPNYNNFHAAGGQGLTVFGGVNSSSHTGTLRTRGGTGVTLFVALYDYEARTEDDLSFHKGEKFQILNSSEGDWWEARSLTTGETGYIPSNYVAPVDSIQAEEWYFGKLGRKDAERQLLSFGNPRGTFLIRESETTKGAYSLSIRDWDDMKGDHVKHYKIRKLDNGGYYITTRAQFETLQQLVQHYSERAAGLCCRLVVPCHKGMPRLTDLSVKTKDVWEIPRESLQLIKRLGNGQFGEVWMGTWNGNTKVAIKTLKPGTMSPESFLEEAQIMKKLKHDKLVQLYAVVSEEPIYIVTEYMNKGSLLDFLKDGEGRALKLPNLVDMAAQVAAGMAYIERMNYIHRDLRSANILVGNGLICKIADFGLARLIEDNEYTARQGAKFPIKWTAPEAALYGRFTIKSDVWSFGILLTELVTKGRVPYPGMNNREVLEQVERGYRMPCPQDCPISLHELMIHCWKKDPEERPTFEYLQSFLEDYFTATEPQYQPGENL
T14 sequence (P08069 31-1367): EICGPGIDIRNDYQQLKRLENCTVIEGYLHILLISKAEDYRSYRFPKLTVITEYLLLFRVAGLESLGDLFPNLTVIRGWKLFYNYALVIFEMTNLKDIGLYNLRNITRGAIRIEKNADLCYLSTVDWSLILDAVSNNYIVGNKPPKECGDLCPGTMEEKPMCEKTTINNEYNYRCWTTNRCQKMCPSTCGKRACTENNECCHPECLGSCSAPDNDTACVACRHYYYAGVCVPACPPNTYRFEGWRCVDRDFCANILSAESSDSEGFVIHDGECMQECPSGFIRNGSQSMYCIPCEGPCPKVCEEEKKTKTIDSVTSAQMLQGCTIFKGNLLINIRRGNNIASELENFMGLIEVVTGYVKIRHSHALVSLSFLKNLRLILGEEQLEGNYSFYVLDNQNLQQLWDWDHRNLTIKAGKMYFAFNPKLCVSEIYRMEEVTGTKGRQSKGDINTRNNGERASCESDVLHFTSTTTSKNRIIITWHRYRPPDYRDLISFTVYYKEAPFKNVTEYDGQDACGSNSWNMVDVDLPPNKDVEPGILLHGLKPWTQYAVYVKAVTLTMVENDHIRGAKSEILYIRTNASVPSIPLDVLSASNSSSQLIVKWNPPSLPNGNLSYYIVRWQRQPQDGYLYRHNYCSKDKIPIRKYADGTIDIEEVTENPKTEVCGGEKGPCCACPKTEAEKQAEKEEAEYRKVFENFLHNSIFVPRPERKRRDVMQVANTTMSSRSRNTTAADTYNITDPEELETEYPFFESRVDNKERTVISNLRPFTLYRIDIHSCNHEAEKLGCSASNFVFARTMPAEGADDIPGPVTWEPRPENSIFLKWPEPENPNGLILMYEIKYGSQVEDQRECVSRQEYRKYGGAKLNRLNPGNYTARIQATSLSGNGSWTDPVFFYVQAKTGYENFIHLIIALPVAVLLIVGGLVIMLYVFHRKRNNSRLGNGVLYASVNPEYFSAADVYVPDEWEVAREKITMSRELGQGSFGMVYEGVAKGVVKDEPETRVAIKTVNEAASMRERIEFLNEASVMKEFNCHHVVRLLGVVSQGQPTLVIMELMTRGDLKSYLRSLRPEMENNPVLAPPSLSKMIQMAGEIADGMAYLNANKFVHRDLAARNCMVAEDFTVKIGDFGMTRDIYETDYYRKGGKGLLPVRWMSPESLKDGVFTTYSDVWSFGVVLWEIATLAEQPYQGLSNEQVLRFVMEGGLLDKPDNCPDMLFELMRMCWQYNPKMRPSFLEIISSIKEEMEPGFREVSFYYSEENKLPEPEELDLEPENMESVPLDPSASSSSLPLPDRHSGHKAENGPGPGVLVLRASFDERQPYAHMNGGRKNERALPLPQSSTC
T9 sequence (P35968 20-1356, species assumed): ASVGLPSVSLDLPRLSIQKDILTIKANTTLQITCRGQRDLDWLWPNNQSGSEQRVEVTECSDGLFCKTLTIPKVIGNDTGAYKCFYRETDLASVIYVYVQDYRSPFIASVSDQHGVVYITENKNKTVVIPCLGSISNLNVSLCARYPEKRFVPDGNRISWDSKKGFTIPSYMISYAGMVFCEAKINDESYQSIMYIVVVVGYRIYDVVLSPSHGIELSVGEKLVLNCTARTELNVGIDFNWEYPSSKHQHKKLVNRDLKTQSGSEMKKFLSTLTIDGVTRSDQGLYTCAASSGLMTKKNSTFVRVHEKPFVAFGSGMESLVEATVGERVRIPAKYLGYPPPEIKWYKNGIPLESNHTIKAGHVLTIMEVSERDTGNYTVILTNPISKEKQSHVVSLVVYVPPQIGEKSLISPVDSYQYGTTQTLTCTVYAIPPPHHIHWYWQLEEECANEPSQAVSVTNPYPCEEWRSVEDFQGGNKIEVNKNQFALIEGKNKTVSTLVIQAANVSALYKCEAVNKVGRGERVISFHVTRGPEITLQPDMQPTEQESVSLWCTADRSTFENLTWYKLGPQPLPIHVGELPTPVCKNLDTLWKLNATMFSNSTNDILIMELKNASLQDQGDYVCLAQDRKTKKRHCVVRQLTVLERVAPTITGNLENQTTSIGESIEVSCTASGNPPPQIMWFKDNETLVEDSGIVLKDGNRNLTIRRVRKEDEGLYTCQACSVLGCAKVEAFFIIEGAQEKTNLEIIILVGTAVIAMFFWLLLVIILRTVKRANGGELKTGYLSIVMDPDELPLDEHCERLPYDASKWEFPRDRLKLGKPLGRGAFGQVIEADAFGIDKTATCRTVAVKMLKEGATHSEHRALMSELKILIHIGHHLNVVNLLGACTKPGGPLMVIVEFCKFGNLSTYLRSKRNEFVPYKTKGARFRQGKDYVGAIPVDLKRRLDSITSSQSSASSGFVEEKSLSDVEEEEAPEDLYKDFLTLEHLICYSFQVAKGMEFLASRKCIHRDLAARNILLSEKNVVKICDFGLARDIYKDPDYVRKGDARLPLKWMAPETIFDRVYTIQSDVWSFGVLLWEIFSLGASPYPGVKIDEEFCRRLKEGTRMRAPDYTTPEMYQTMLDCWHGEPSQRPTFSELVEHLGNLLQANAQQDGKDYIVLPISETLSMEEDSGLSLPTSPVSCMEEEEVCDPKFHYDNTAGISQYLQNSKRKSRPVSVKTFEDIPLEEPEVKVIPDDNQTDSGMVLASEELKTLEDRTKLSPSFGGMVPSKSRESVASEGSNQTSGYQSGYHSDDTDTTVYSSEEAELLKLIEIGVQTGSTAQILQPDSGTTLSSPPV

SMILES | IC50 (Lck) | IC50 (Lyn) | IC50 (Src) | IC50 (Fyn) | IC50 (Zap-70) | IC50 (Itk) | IC50 (EGFR) | IC50 (ErbB2) | IC50 (Kdr) | IC50 (Flt-1) | IC50 (Tek) | IC50 (c-Met) | IC50 (AKT) | IC50 (IGFR-1) | IC50 (PDGFRB) | IC50 (Hck-1) | IC50 (ErbB4) | IC50 (Ret-1) | IC50 (FGFR1)
COc1cc(Nc2ncnc(-n3c(=O)[nH]c4ccccc43)n2)cc(OC)c1OCCN1CCOCC1 [Compound 1040] | 0.81 to 4.86 µM | > 9.12 µM | 0.81 to 4.86 µM | 0.81 to 4.86 µM | > 9.12 µM | 0.81 to 4.86 µM | 4.86 to 7.09 µM | 4.86 to 7.09 µM | < 0.81 µM | 0.81 to 4.86 µM | > 9.12 µM | > 9.12 µM | > 9.12 µM | 7.09 to 9.12 µM | < 0.81 µM | > 9.12 µM | 4.86 to 7.09 µM | 4.86 to 7.09 µM | 0.81 to 4.86 µM
COc1cc(Nc2ncnc(Nc3cccc4ccccc34)n2)cc(OC)c1OCCN1CCOCC1 [Compound 1041] | < 0.796 µM | < 0.796 µM | < 0.796 µM | 0.796 to 4.78 µM | > 8.95 µM | 0.796 to 4.78 µM | < 0.796 µM | < 0.796 µM | < 0.796 µM | 4.78 to 6.96 µM | 0.796 to 4.78 µM | > 8.95 µM | > 8.95 µM | 0.796 to 4.78 µM | < 0.796 µM | 0.796 to 4.78 µM | 0.796 to 4.78 µM | 0.796 to 4.78 µM | 0.796 to 4.78 µM
C=CCNc1ncccc1-c1ncnc(Nc2cc(OC)c(OC)c(OC)c2)n1 [Compound 1076] | < 1.01 µM | > 11.4 µM | 1.01 to 6.08 µM | 1.01 to 6.08 µM | > 11.4 µM | > 11.4 µM | > 11.4 µM | > 11.4 µM | < 1.01 µM | 1.01 to 6.08 µM | > 11.4 µM | > 11.4 µM | > 11.4 µM | > 11.4 µM | < 1.01 µM | > 11.4 µM | > 11.4 µM | < 1.01 µM | 1.01 to 6.08 µM
NC(=O)c1ccc(Nc2ncnc(-c3cccnc3NCc3ccccc3)n2)cc1 [Compound 1082] | 1.01 to 6.04 µM | 6.04 to 8.81 µM | > 11.3 µM | > 11.3 µM | 1.01 to 6.04 µM | > 11.3 µM | 1.01 to 6.04 µM | > 11.3 µM | < 1.01 µM | > 11.3 µM | 1.01 to 6.04 µM | 8.81 to 11.3 µM | > 11.3 µM | 6.04 to 8.81 µM | 1.01 to 6.04 µM | > 11.3 µM | 1.01 to 6.04 µM | < 1.01 µM | > 11.3 µM
CC(C)Nc1ncccc1-c1ncnc(Nc2ccc(C(N)=O)cc2)n1 [Compound 1084] | < 1.14 µM | < 1.14 µM | > 12.9 µM | > 12.9 µM | > 12.9 µM | 6.87 to 10 µM | > 12.9 µM | > 12.9 µM | 1.14 to 6.87 µM | > 12.9 µM | > 12.9 µM | 6.87 to 10 µM | > 12.9 µM | > 12.9 µM | 1.14 to 6.87 µM | > 12.9 µM | > 12.9 µM | < 1.14 µM | > 12.9 µM
COc1ccc(Nc2ncccc2-c2ncnc(Nc3cc(OC)c(OC)c(OC)c3)n2)c(C)c1 [Compound 1086] | 5.06 to 7.38 µM | > 9.48 µM | > 9.48 µM | > 9.48 µM | > 9.48 µM | > 9.48 µM | > 9.48 µM | 7.38 to 9.48 µM | < 0.843 µM | 5.06 to 7.38 µM | 7.38 to 9.48 µM | > 9.48 µM | > 9.48 µM | > 9.48 µM | > 9.48 µM | > 9.48 µM | > 9.48 µM | 7.38 to 9.48 µM | > 9.48 µM
COc1cc(Nc2ncnc(-c3cccnc3NCc3ccccc3F)n2)cc(OC)c1OC [Compound 1087] | 5.19 to 7.57 µM | > 9.73 µM | > 9.73 µM | > 9.73 µM | > 9.73 µM | > 9.73 µM | > 9.73 µM | > 9.73 µM | 0.865 to 5.19 µM | > 9.73 µM | > 9.73 µM | > 9.73 µM | > 9.73 µM | > 9.73 µM | 5.19 to 7.57 µM | > 9.73 µM | > 9.73 µM | 0.865 to 5.19 µM | 7.57 to 9.73 µM
